Laboratory results taken from article PMC8318231, “Rate-of-Kill (RoK) assays to triage large compound sets for Chagas disease drug discovery: Application to GSK Chagas Box” (PLoS Neglected Tropical Diseases, 2021).

Legend:
[1] = system: T. cruzi Tulahuen trypomastigotes; assay: T. cruzi trypomastigote assay (Cell Titer-Glo viability, ATP luminescence); assay type: cell-based, Trypanosoma cruzi; conditions: for Trypomastigotes pIC50 48 hours: 48 hours incubation; for Trypomastigotes pIC50 48 hours / Trypomastigotes pIC50 72 hours: pIC50 = -log10 IC50 in molar units; for Trypomastigotes pIC50 72 hours: 72 hours incubation; for 48 pIC50 / 72 pIC50: trypomastigote assay; for 48 pIC50: 48 h; for 72 pIC50: 72 h
Procedure: T. cruzi Tulahuen trypomastigotes obtained from the supernatants of LLC-MK2 infected cultures in a 225 cm^2 T-Flasks harvested between days 5 and 8 of infection. Trypomastigotes (5 × 10^4 per well) in 50 μl of DMEM/ 2% FBS were dispensed into white 384 plates (Greiner) pre-stamped with 250 nl compound a single-shot final concentration of 5 μM, or in dose response. […] Cell Titer-Glo cell viability solution (Promega) was added to each well (50 μL) incubated at room temperature for 10 min and luminescence read by Envision plate reader (Perkin Elmer). This assay quantifies the amount of ATP present which is directly proportional to the number of metabolically active cells. All data were normalised (100% effect control for no cells and 0% effect control for DMSO). This assay was adapted from MacLean et al., 2018 [22].

TcCYP51 = conditions: formerly reported; cited from earlier work

Compound	Trypomastigotes pIC50 48 hours [1]	Trypomastigotes pIC50 72 hours [1]	CYP51 pIC50 (TcCYP51)	48 pIC50 ([1]; figure 1A)	72 pIC50 ([1]; figure 1A)	72 pIC50 ([1]; figure 1B)
CC1(C)CCC(=Cc2ccc(Cl)cc2)CC1(O)Cn1ccnc1 (centres unmarked) [TCMDC-125222]	5.1	4.8	7.3			
Nc1ncnc2c1ncn2[C@@H]1O[C@H](CO)C[C@H]1O [TCMDC-143080]	< 4.3	6	< 4			
O=C1CCCCCC1(Cc1cnc[nH]1)c1ccc(Cl)cc1Cl (centres unmarked) [TCMDC-143081]	< 4.3	< 4.3	7	< 4.3	< 4.3	< 4.3
Cl.Clc1ccc(C(CC2CCCCO2)Cn2cncn2)c(Cl)c1 (centres unmarked) [TCMDC-143082]	< 4.3	< 4.3	6.6	< 4.3	< 4.3	< 4.3
Cn1nc([N+](=O)[O-])nc1N1CCCCC1 [TCMDC-143088]	< 4.3	< 4.3	< 4	< 4.3	< 4.3	< 4.3
O=C(NCc1ccc(-n2cccc2)cc1)c1nc(Cn2ccc([N+](=O)[O-])n2)no1 [TCMDC-143103]	6	5.9	< 4			
COc1cccc(-c2cc(C(F)(F)F)nc(-n3ccc([N+](=O)[O-])n3)n2)c1 [TCMDC-143105]	5.8	6	< 4			
CN(C)CCN(C)Cc1ccc(F)cc1NS(=O)(=O)c1ccc(Cl)c(Cl)c1 [TCMDC-143118]	5.9	5.9	< 4	5.9	5.9	5.9
N#Cc1nc(C=Cc2ccccc2)oc1NCc1cccnc1 [TCMDC-143120]	4.5	< 4.3				
Cn1nc([N+](=O)[O-])nc1Oc1ccc(C(=O)c2ccccc2)cc1 [TCMDC-143126]	6	6.1	< 4			
O=S(=O)(NCC(c1cccnc1)N1CCN(c2ccccc2F)CC1)c1ccc(F)cc1 (centres unmarked) [TCMDC-143142]	< 4.3	< 4.3	7.1	< 4.3	< 4.3	< 4.3
N#Cc1cc([N+](=O)[O-])ccc1NC1CCCCCC1 [TCMDC-143143]	< 4.3	< 4.3	< 4	< 4.3	< 4.3	< 4.3
C=CCOCC1Cn2nc([N+](=O)[O-])nc2O1 (centres unmarked) [TCMDC-143149]	< 4.3	< 4.3	< 4	< 4.3	< 4.3	< 4.3
Cc1ccc(NC(=O)c2ccc(Cl)c(NC(=O)c3ccc([N+](=O)[O-])cc3)c2)cc1 [TCMDC-143150]	5.8	5.6	< 4			
C=CCn1nc([N+](=O)[O-])nc1Oc1ccc(Cl)cc1Cl [TCMDC-143151]	6.1	6.3	4.7			
Cc1c(CNC(=O)c2ccc(Cn3cc(Cl)c([N+](=O)[O-])n3)cc2)cnn1C [TCMDC-143153]	4.7	5.3	< 4			
Cc1c([N+](=O)[O-])c(C(=O)Nc2sc3c(c2C#N)CCC(C)C3)nn1C (centres unmarked) [TCMDC-143155]	5.3	5.3	< 4	5.3	5.3	5.3
O=C(Nc1ccc(Br)cn1)c1ccc(Cn2cnc([N+](=O)[O-])n2)cc1 [TCMDC-143156]	6.1	6.1	< 4	6.1	6.1	6.1
CC1=NN(C(=O)CCn2cnc([N+](=O)[O-])n2)C(O)(C(F)(F)F)C1 (centres unmarked) [TCMDC-143157]	< 4.3	< 4.3	< 4	< 4.3	< 4.3	< 4.3
O=C(c1cc2cc(Cl)ccc2[nH]1)N1CCCCC1c1cccnc1 (centres unmarked) [TCMDC-143159]	4.5	4.4	7.2			

Compound	Trypomastigotes pIC50 48 hours [1]	Trypomastigotes pIC50 72 hours [1]	CYP51 pIC50 (TcCYP51)	48 pIC50 ([1]; figure 1A)	72 pIC50 ([1]; figure 1A)	72 pIC50 ([1]; figure 1B)
O=S(=O)(c1ccccc1C(F)(F)F)N1CCN(Cc2ccc(-n3ccnc3)cc2)CC1 [TCMDC-143161]	< 4.3	< 4.3	7	< 4.3	< 4.3	< 4.3
CC1(Oc2cncc(Cl)c2)CCN(Cc2cc3ccccc3[nH]2)C1 (centres unmarked) [TCMDC-143162]	5.6	6.1	5			
CC(=O)Nc1ccc(-c2csc(NC(=O)c3ccc([N+](=O)[O-])s3)n2)cc1 [TCMDC-143164]	6.4	6.6	5.2			
N#Cc1cccc(CN2CCC(N(Cc3cccnc3)C(=O)c3cc(F)c(F)cc3F)CC2)c1 [TCMDC-143178]	< 4.3	< 4.3	7.3	< 4.3	< 4.3	< 4.3
N#Cc1cccc(CN2CCC(c3nc(-c4ccc(C(F)(F)F)nc4)no3)CC2)c1 [TCMDC-143179]	< 4.3	< 4.3	< 4	< 4.3	< 4.3	< 4.3
COc1ccc(-c2nc3ccncc3c(=O)n2CCOc2ccccc2)cc1 [TCMDC-143182]	< 4.3	< 4.3	7.4	< 4.3	< 4.3	< 4.3
O=C(CCCn1cnc([N+](=O)[O-])n1)Nc1cccc(Cl)c1 [TCMDC-143186]	6	5.9	4.3			
CC1=C(C(=O)Nc2ccc(Cl)cc2)C(c2ccncc2)n2ncc(C(=O)Nc3ccccc3)c2N1 (centres unmarked) [TCMDC-143187]	< 4.3	< 4.3	6.9	< 4.3	< 4.3	< 4.3
Cc1ccc2c(c1)-c1onc(C(=O)N3CCCCC3c3cccnc3)c1CO2 (centres unmarked) [TCMDC-143191]	4.7	4.4	7			
COc1ccc(-c2cc(C)no2)cc1S(=O)(=O)Nc1ccc(F)c(Cl)c1 [TCMDC-143193]	4.8	4.4	< 4			
O=C(Nc1ccc(C(=O)N2CCCC2c2ccc3c(c2)OCCCO3)cc1)c1ccco1 (centres unmarked) [TCMDC-143198]			4.2			
O=c1[nH]c(C=Cc2cccc(OCCOc3ccccc3)c2)nc(O)c1[N+](=O)[O-] [TCMDC-143209]	< 4.3	< 4.3	< 4	< 4.3	< 4.3	< 4.3
CN(Cc1cc2ccccc2s1)c1ncc2c(N)nc(N)nc2n1 [TCMDC-143232]	5.3	5.5	< 4			
Clc1ccc(OCCN2CCCCC2c2cccnc2)c(Cl)c1 (centres unmarked) [TCMDC-143235]	4.4	4.4	7.2	4.4	4.4	4.4
O=C(NCCNc1noc(-c2ccc([N+](=O)[O-])cc2)n1)c1ccc(Cl)cc1 [TCMDC-143241]	5.4	5.5	< 4			
CN(Cc1cccnc1)Cc1ccc(N2CCN(C(=O)C3(c4ccc(Cl)cc4)CC3)CC2)nc1 [TCMDC-143247]	5.1	4.4	6.8			
Cc1nn(C2CCS(=O)(=O)C2)c(C)c1CN(C)C(=O)C=Cc1sc2ccccc2c1Cl (centres unmarked) [TCMDC-143258]	4.4	4.7	7.5			
Cc1cc(C)nc(N2CCC(N(Cc3cccnc3)C(=O)c3cccc(C#N)c3)CC2)n1 [TCMDC-143272]	< 4.3	< 4.3	6.9	< 4.3	< 4.3	< 4.3
CN(Cc1nnnn1C1CCN(Cc2ccc(-n3ccnc3)cc2)CC1)c1ccc(F)cc1F [TCMDC-143321]			6.9			
CN(Cc1ccccc1)Cc1nnnn1C1CCN(Cc2ccc(-n3ccnc3)cc2)CC1 [TCMDC-143322]			7.3			
